Here are results for 1 compound from patent US6740651B2, “Aminoquinazolines which inhibit signal transduction mediated by tyrosine kinases” (Boehringer Ingelheim Pharma KG, priority 2000, dated 2004).

Molecules are shown by their SMILES.

The test deals with T1, human EGF-R (Homo sapiens, UniProt P00533).
T1 construct: expressed in transfected cells; host or cells: F/L-HERc cells (murine IL-3-dependent FDC-P1 line transduced with LXSN retroviral vector carrying human EGF-R cDNA; packaging line GP+E86)
T1 sequence (P00533 25-1210): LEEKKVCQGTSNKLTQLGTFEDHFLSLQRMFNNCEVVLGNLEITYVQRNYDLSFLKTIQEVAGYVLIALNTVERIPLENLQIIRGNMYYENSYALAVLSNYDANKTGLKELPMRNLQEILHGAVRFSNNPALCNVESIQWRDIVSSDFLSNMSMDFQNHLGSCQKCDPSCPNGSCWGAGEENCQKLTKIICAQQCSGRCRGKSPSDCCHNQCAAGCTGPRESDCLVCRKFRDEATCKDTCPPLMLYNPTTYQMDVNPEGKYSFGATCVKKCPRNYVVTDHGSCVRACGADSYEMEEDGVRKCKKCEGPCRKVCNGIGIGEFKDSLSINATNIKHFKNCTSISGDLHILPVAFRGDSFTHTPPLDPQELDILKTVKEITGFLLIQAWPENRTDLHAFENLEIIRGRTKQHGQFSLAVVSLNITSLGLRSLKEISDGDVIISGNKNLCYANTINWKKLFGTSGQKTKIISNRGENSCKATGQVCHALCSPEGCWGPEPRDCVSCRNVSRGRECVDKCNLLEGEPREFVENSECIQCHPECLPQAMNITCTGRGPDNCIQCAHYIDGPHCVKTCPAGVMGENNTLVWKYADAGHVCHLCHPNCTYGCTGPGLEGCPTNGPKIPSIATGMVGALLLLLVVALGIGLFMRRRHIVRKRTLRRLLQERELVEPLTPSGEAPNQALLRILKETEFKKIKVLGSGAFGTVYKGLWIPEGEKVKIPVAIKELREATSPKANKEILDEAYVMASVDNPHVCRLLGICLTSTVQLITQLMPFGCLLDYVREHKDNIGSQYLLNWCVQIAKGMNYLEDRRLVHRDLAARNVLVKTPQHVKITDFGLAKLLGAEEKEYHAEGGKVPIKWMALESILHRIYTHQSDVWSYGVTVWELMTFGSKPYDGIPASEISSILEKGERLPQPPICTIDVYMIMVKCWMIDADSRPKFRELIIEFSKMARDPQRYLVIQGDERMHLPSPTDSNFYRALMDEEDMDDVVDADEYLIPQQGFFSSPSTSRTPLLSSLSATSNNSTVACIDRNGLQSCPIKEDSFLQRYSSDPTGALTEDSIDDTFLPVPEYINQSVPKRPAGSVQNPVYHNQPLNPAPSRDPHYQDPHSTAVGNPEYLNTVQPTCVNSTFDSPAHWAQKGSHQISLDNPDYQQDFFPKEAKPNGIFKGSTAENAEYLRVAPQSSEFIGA
Description: Inhibition of the EGF-dependent proliferation of F/L-HERc cells (Cell Titer 96 proliferation assay). It counts as cell-based. To be noted: F/L-HERc cells (murine IL-3-dependent line expressing human EGF-R), stimulated with EGF 20 ng/ml, 48 hours at 37° C. The text has this:
A cell line of murine origin dependent on interleukin-3-(IL-3) which was genetically modified to express functional human EGF-R was used here. The proliferation of these cells known as F/L-HERc can therefore be stimulated either by murine IL-3 or by EGF (cf. von Rüden, T. et al. in EMBO J. 7, 2749-2756 (1988) and Pierce, J. H. et al. in Science 239, 628-631 (1988)).
The starting material used for the F/L-HERc cells was the cell line FDC-P1, the production of which has been described by Dexter, T. M. et al. in J. Exp. Med. 152, 1036-1047 (1980). Alternatively, however, other growth-factor-dependent cells may also be used (cf. for example Pierce, J. H. et al. in Science 239, 628-631 (1988), Shibuya, H. et al. in Cell 70, 57-67 (1992) and Alexander, W. S. et al. in EMBO J. 10, 3683-3691 (1991)). […]
In order to determine the inhibitory activity of the compounds according to the invention the relative cell number was measured in O.D. units using the Cell Titer 96™ Aqueous Non-Radioactive Cell Proliferation Assay (Promega). […]

`COC[C@H]1CN(CC=CC(=O)Nc2cc3c(Nc4ccc(F)c(Cl)c4)ncnc3cc2OCC2CC2)CC(=O)O1` [Example 1, 4-[(3-chloro-4-fluoro-phenyl)amino]-6-{[4-((R)-2-methoxymethyl-6-oxo-morpholin-4-yl)-1-oxo-2-buten-1-yl]amino}-7-cyclopropylmethoxy-quinazoline] gave an IC50 of 2 nM.

The term IC50 denotes the midpoint of a concentration-inhibition curve. Higher therefore signals weaker potency.
